These results are taken from patent publication US20220363665A1, “QUINOLINE COMPOUNDS FOR THE TREATMENT OF AUTOIMMUNE DISEASE” (Hoffmann-La Roche Inc., priority 2019, published 2022).

Type in all cases: in vitro ADME
One series has as its target T1, CYP2D6 (Homo sapiens, UniProt P10635).
T1 construct: tissue BD-Gentest 452117; host or cells: human liver microsomes
The experiment in a line: CYP inhibition assay in human liver microsome, CYP2D6. The settings on record: HLM, dextromethorphan substrate; for inhibition at 10 min, 10 µM: human, liver microsomes, probe dextromethorphan, read-out: CYP inhibition % @10 uM (2D6). Here is the method:
(§1) This is a high throughput screening assay used for assessment of reversible inhibition of CYP2C9, CYP2D6, and CYP3A4 activity of test compounds in human liver microsome (HLM) in early discovery stage.
(§2) 10 mM DMSO stock solutions of test compounds were diluted in DMSO to generate 2 mM intermediate stock solution. 250 nL of intermediate stock solution were transferred in duplicate into 3 separate 384 well microtitre plates (assay-ready plates). A mixture of HLM and each substrate was made up. 45 μL of HLM substrate mix was then transferred to each well of an assay ready plate and mixed. The negative (solvent) and positive controls (standard inhibitor for each CYP) were included in each assay ready plate. The assay ready plate was warmed to 37° C. in an incubator over 10 minutes. 5 μL pre-warmed NADPH regenerating system was added to each incubation well to start the reaction. Final incubation volume was 50 μL. The assay plate then was placed back in the 37° C. incubator. After 5 minutes incubation (10 minutes for CYP2D6), incubates were quenched by addition of 50 μL quench reagent containing internal standards (400 ng/mL 13C6-4′-OH-Diclofenac, 20 ng/mL D3-Dextrorphan and 20 ng/mL D4-1′OH-Midazolam in acetonitrile). The supernatants were collected for RapidFire/MS/MS analysis.
(§3) RapidFire online solid phase extraction/sample injection system (Agilent) coupled with API4000 triple quadrupole mass spectrometer (AB Sciex) were used for sample analysis. The mobile phase composed of acetonitrile and water supplemented with 0.1% formic acid. A C4 solid phase extraction cartridge is used for sample separation. MS detection is achieved in positive ion MRM mode.
(§4) Peak areas for substrate, metabolite and internal standard are determined using the
(§5) RapidFire integrator software (version 3.6.12009.12296). Peak area ratios (PAR) of metabolite and internal standard (stable-labelled metabolite) are then calculated. The measurement window for each experiment is then defined:
(§6) PAR (0% activity)=average PAR for all incubations containing concentrated inhibitor;
(§7) Par (100% activity)=average PAR for all incubations containing no inhibitor (DMSO controls);
(§8) % Activity (test inhibitor) =[PAR(test inhibitor)-PAR(0% activity)][PAR(100% activity)-PAR(0% activity)];
(§9) % Inhibition (test inhibitor)=100-% Activity (test inhibitor).
(§10) Percentage inhibition data are then reported, in duplicate, for the 3 CYP enzymes.
On the technique in general: Liver microsomes are vesicles of endoplasmic reticulum, rich in cytochrome P450 enzymes.

A short description of series [1]: Human microsome stability assay. Particulars: 1 μM test compound, 0.5 mg/mL protein. Here is the method:
The human microsomal stability assay is used for early assessment of metabolic stability of a test compound in human liver microsomes.
Human liver microsomes (Cat. NO.: 452117, Corning, USA; Cat. NO.: H2610, Xenotech, USA) were preincubated with test compound for 10 minutes at 37° C. in 100 mM potassium phosphate buffer, pH 7.4. The reactions were initiated by adding NADPH regenerating system. The final incubation mixtures contained 1 μM test compound, 0.5 mg/mL liver microsomal protein, 1 mM MgCl2, 1 mM NADP, 1 unit/mL isocitric dehydrogenase and 6 mM isocitric acid in 100 mM potassium phosphate buffer, pH 7.4. After incubation times of 0, 3, 6, 9, 15 and 30 minutes at 37° C., 300 μL of cold ACN (including internal standard) was added to 100 μL incubation mixture to terminate the reaction. Following precipitation and centrifugation, the amount of compound remaining in the samples were determined by LC-MS/MS. Controls of no NADPH regenerating system at zero and 30 minutes were also prepared and analyzed. The results were categorized as: low (<7.0 mL/min/kg), medium (7.0˜16.2 mL/min/kg) and high (16.2-23.2 mL/min/kg).

The target in another series is T2, CYP2C9 (Homo sapiens, UniProt P11712).
T2 construct: tissue BD-Gentest 452117; host or cells: human liver microsomes
The experiment in a line: CYP inhibition assay in human liver microsome, CYP2C9. Particulars: HLM, diclofenac substrate; for inhibition at 5 min, 10 µM: human, liver microsomes, probe diclofenac, read-out: CYP inhibition % @10 uM (2C9). Here is the method:
as §1, §2, §3, §4, §5, §6, §7, §8, §9, §10

T2 sequence (P11712 whole entry): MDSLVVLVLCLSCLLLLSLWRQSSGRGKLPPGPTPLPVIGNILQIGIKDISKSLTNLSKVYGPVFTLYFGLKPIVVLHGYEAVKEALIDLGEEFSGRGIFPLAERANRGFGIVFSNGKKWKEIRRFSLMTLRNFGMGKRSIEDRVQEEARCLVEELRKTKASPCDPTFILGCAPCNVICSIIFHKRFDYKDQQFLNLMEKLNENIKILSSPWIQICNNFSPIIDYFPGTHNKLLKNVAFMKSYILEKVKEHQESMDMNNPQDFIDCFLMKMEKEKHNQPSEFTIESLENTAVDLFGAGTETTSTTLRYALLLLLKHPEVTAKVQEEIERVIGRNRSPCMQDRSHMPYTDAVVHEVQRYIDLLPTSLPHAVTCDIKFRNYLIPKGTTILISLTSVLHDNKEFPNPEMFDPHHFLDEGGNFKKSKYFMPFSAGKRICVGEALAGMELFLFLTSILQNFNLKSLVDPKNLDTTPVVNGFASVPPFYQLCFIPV
T1 sequence (P10635 whole entry): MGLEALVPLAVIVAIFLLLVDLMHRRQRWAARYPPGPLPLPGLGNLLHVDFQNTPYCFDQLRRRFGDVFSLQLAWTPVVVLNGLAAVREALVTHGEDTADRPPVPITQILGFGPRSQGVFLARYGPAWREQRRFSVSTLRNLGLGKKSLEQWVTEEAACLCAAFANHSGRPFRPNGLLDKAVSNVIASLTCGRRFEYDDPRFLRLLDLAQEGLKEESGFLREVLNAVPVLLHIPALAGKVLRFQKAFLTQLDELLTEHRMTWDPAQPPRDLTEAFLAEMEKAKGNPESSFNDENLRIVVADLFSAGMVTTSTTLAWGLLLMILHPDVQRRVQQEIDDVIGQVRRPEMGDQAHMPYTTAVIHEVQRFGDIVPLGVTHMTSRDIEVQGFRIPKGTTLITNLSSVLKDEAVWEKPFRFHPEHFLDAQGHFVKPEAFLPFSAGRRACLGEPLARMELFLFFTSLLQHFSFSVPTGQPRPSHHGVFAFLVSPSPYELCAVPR

The inhibition is the change of the read-out against control, counted positive when it falls. As to `C[C@@H]1CN(c2ccc(C(F)(F)F)c3ncccc23)C[C@H](C(=O)N2CCC(N)CC2)O1` [Example 12, (4-amino-1-piperidyl)-[(2R,6R)-6-methyl-4-[8-(trifluoromethyl)-5-quinolyl]morpholin-2-yl]methanone], the inhibition at 10 min, 10 µM on CYP2D6 is 7%. In addition, the “clearance in human liver microsomes” value in series [1] amounted to 6.15 mL/min/kg. Besides, on CYP2C9, the inhibition at 5 min, 10 µM turned out to be 12%.

Take `C[C@@H]1CN(c2ccc(C(F)(F)F)c3ncccc23)C[C@H](C(=O)NC2CC3CNCC32)O1` (single isomer, unassigned) [Example 49B]: at CYP2D6, the “CYP inhibition % @10 uM (2D6)” value is on record as −12%. Further, the “clearance in human liver microsomes” value in series [1] was 6.15 mL/min/kg. For the same compound, on CYP2C9, the “CYP inhibition % @10 uM (2C9)” value is on record as −2%.

Turning to `C[C@@H]1CN(c2ccc(C(F)(F)F)c3ncccc23)C[C@H](C(=O)NC2CCCNCC2)O1` (stereo partly drawn) [Example 8, (2R,6R)-N-(azepan-4-yl)-6-methyl-4-[8-(trifluoromethyl)-5-quinolyl]morpholine-2-carboxamide], the inhibition at 10 min, 10 µM on CYP2D6 came to 10%. Moreover, in series [1], the “clearance in human liver microsomes” value turned out to be 6.15 mL/min/kg. The inhibition at 5 min, 10 µM at CYP2C9 was -8%.

Regarding `Cc1ccc(N2C[C@@H](C)O[C@@H](C(=O)NC3CCN(C)CC3)C2)c2cccnc12` [Example 16, (2R,6R)-6-methyl-N-(1-methyl-4-piperidyl)-4-(8-methyl-5-quinolyl)morpholine-2-carboxamide], at CYP2D6, the inhibition at 10 min, 10 µM worked out at 5%. Moreover, the “clearance in human liver microsomes” value in series [1] worked out at 6.15 mL/min/kg. Besides, the inhibition at 5 min, 10 µM at CYP2C9 is -8%.

As to `C[C@@H]1CN(c2ccc(C(F)(F)F)c3ncccc23)C[C@H](C(=O)N2CCC(N)C2)O1` (stereo partly drawn) [Example 10, (3-aminopyrrolidin-1-yl)-[(2R,6R)-6-methyl-4-[8-(trifluoromethyl)-5-quinolyl]morpholin-2-yl]methanone], on CYP2D6, the inhibition at 10 min, 10 µM is 26%. Besides, the “clearance in human liver microsomes” value in series [1] is 6.15 mL/min/kg. Besides, the inhibition at 5 min, 10 µM at CYP2C9 is 11%.

Take `C[C@@H]1CN(c2ccc(C(F)(F)F)c3ncccc23)C[C@H](C(=O)NC2C3CCC2CNC3)O1` (stereo partly drawn) [Example 31, (2R,6R)-N-(3-azabicyclo[3.2.1]octan-8-yl)-6-methyl-4-[8-(trifluoromethyl)-5-quinolyl]morpholine-2-carboxamide]: the inhibition at 10 min, 10 µM on CYP2D6 was found to be 2%. For the same compound, the “clearance in human liver microsomes” value in series [1] was determined as 6.15 mL/min/kg. In addition, the inhibition at 5 min, 10 µM on CYP2C9 is -1%.

Regarding `C[C@H]1C[C@@H](N)CN(c2ccc(Cl)c3ncccc23)C1` [Example 23, (3R,5S)-1-(8-chloro-5-quinolyl)-5-methyl-piperidin-3-amine], the inhibition at 10 min, 10 µM on CYP2D6 is 35%. Moreover, the “clearance in human liver microsomes” value in series [1] was 6.15 mL/min/kg. At CYP2C9, the inhibition at 5 min, 10 µM is -16%.

With `C[C@@H]1CN(c2ccc(Cl)c3ncccc23)C[C@H](C(=O)NCC2CN(C)CCO2)O1` (stereo partly drawn) [Example 26, (2R,6R)-4-(8-chloro-5-quinolyl)-6-methyl-N-[(4-methylmorpholin-2-yl)methyl]morpholine-2-carboxamide], the inhibition at 10 min, 10 µM on CYP2D6 stood at 3%. In addition, the “clearance in human liver microsomes” value in series [1] was determined as 6.15 mL/min/kg. Also, the inhibition at 5 min, 10 µM at CYP2C9 is -13%.

For `C[C@@H]1CN(c2ccc(C(F)(F)F)c3ncccc23)C[C@H](C(=O)NC2CC3CCCC(C2)N3)O1` (single isomer, unassigned) [Example 34A], the “CYP inhibition % @10 uM (2D6)” value on CYP2D6 was determined as 3%. The “clearance in human liver microsomes” value in series [1] was found to be 6.24 mL/min/kg. Further, the “CYP inhibition % @10 uM (2C9)” value at CYP2C9 is reported as −6%.

Consider `C[C@@H]1CN(c2ccc(Cl)c3ncccc23)C[C@H](C(=O)NC2CCN(C)CC2)O1` [Example 24, (2R,6R)-4-(8-chloro-5-quinolyI)-6-methyl-N-(1-methyl-4-piperidyl)morpholine-2-carboxamide], for which the inhibition at 10 min, 10 µM on CYP2D6 is -6%. Further, in series [1], the “clearance in human liver microsomes” value stood at 6.15 mL/min/kg. The inhibition at 5 min, 10 µM on CYP2C9 is -20%.

As to `C[C@@H]1CN(c2ccc(C(F)(F)F)c3ncccc23)C[C@H](C(=O)N[C@H]2CNC[C@H]2F)O1` (single isomer, unassigned) [Example 2B], the “clearance in human liver microsomes” value in series [1] came out at 6.15 mL/min/kg.
